Data reported in patent US20150005288A1, “SUBSTITUTED PHENYLIMIDAZOPYRAZOLES AND USE THEREOF” (Bayer Intellectual Property GmbH, priority 2012, published 2015).

Molecular target: T1, intracellular domain of human Tie2 (GST fusion protein) (Homo sapiens, UniProt Q02763)
T1 construct: intracellular domain of human Tie2 (amino acids 776-1124); made in house; host or cells: Baculovirus-infected insect cells (Hi5)
Experiment: Tie2 kinase assay (Tie2-TR-FRET)
Assay type: biochemical
Conditions: ATP concentration 1 mM, in some cases means of several independent determinations
In short: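 GST fusion of human Tie2 intracellular domain (aa 776-1124, Hi5-expressed), ~30 ng/ml, pre-incubated 15 min with compound, then 1 mM ATP and 1 μM biotinylated peptide, 60 min at 22 °C, pH 7. TR-FRET (Eu anti-phosphotyrosine/streptavidin-XL665, 665/620 nm ratio). […] 20 μM–0.073 nM in duplicate; IC50 by 4-parameter fit.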

T1 sequence (Q02763 776-1124): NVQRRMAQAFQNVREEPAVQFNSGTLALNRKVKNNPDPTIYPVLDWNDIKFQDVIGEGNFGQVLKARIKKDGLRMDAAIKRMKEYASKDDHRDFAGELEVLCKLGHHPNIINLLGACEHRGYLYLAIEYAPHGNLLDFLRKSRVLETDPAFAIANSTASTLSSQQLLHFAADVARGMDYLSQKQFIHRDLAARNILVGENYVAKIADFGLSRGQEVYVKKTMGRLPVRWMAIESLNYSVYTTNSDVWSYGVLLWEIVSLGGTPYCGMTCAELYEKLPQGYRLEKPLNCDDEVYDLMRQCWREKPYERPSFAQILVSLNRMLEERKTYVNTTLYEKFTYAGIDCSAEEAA

Cc1cc(C)c(-n2ccn3nc(-c4cccnc4)cc23)cc1NC(=O)c1cc(C(C)(C)F)cc(S(F)(F)(F)(F)F)c1 [Example 149, N-{2,4-Dimethyl-5-[6-(pyridin-3-yl)-1H-imidazo[1,2-b]pyrazol-1-yl]phenyl}-3-(2-fluoropropan-2-yl)-5-(pentafluoro-λ^6-sulphanyl)benzamide]
IC50: 2.3 nM

Cc1cc(C)c(-n2ccn3nc(-c4cccnc4)cc23)cc1NC(=O)c1cc(CC(=O)OC(C)(C)C)cc(S(F)(F)(F)(F)F)c1 [Example 150, tert-Butyl [3-({2,4-dimethyl-5-[6-(pyridin-3-yl)-1H-imidazo[1,2-b]pyrazol-1-yl]phenyl}-carbamoyl)-5-(pentafluoro-λ^6-sulphanyl)phenyl]acetate]
IC50: 2.4 nM

Cc1cc(C)c(-n2ccn3nc(-c4cccnc4)cc23)cc1NC(=O)c1cc(CC(=O)O)cc(S(F)(F)(F)(F)F)c1 [Example 151, [3-({2,4-Dimethyl-5-[6-(pyridin-3-yl)-1H-imidazo[1,2-b]pyrazol-1-yl]phenyl}carbamoyl)-5-(pentafluoro-λ^6-sulphanyl)phenyl]acetic acid]
IC50: 6.1 nM

COC(=O)Cc1cc(C(=O)Nc2cc(-n3ccn4nc(-c5cccnc5)cc34)c(C)cc2C)cc(S(F)(F)(F)(F)F)c1 [Example 152, Methyl [3-({2,4-dimethyl-5-[6-(pyridin-3-yl)-1H-imidazo[1,2-b]pyrazol-1-yl]phenyl}carbamoyl)-5-(pentafluoro-λ^6-sulphanyl)phenyl]acetate]
IC50: 0.4 nM

Cc1cc(C)c(-n2ccn3nc(-c4cccnc4)cc23)cc1NC(=O)c1cc(CC(N)=O)cc(S(F)(F)(F)(F)F)c1 [Example 153, 3-(2-Amino-2-oxoethyl)-N-{2,4-dimethyl-5-[6-(pyridin-3-yl)-1H-imidazo[1,2-b]pyrazol-1-yl]-phenyl}-5-(pentafluoro-λ^6-sulphanyl)benzamide]
IC50: 0.3 nM

Cc1cc(C)c(-n2ccn3nc(-c4cccnc4)cc23)cc1NC(=O)c1cc(CC(C)(C)O)cc(S(F)(F)(F)(F)F)c1 [Example 154, N-{2,4-Dimethyl-5-[6-(pyridin-3-yl)-1H-imidazo[1,2-b]pyrazol-1-yl]phenyl}-3-(2-hydroxy-2-methylpropyl)-5-(pentafluoro-λ^6-sulphanyl)benzamide]
IC50: 0.4 nM

COCCOCc1cc(C(=O)Nc2cc(-n3ccn4nc(-c5cccnc5)cc34)c(C)cc2C)cc(S(F)(F)(F)(F)F)c1 [Example 155, N-{2,4-Dimethyl-5-[6-(pyridin-3-yl)-1H-imidazo[1,2-b]pyrazol-1-yl]phenyl}-3-[(2-methoxy-ethoxy)methyl]-5-(pentafluoro-λ^6-sulphanyl)benzamide]
IC50: 0.7 nM

Cc1ccc(NC(=O)c2cc(C#N)cc(S(F)(F)(F)(F)F)c2)c(O)c1-n1ccn2nc(-c3cccnc3)cc12 [Example 156, 3-Cyano-N-{2-hydroxy-4-methyl-3-[6-(pyridin-3-yl)-1H-imidazo[1,2-b]pyrazol-1-yl]phenyl}-5-(pentafluoro-λ^6-sulphanyl)benzamide]
IC50: 5.9 nM

Cc1ccc(NC(=O)c2cccc(S(F)(F)(F)(F)F)c2)cc1-n1ccn2nc(-c3cccnc3)c(F)c12 [Example 158, N-{3-[7-Fluoro-6-(pyridin-3-yl)-1H-imidazo[1,2-b]pyrazol-1-yl]-4-methylphenyl}-3-(pentafluoro-λ^6-sulphanyl)benzamide]
IC50: 58 nM

Cc1ccc(NC(=O)c2cc(C#N)cc(S(F)(F)(F)(F)F)c2)cc1-n1ccn2nc(-c3cccnc3)c(F)c12 [Example 159, 3-Cyano-N-{3-[7-fluoro-6-(pyridin-3-yl)-1H-imidazo[1,2-b]pyrazol-1-yl]-4-methylphenyl}-5-(pentafluoro-λ^6-sulphanyl)benzamide]
IC50: 10 nM

Cc1ccc(NC(=O)c2cc(C(C)(C)O)cc(S(F)(F)(F)(F)F)c2)cc1-n1ccn2nc(-c3cccnc3)c(F)c12 [Example 160, N-{3-[7-Fluoro-6-(pyridin-3-yl)-1H-imidazo[1,2-b]pyrazol-1-yl]-4-methylphenyl}-3-(2-hydroxypropan-2-yl)-5-(pentafluoro-λ^6-sulphanyl)benzamide]
IC50: 1 nM

Cc1ccc(NC(=O)c2cccc(S(F)(F)(F)(F)F)c2)cc1-n1ccn2nc(-c3cncnc3)cc12 [Example 163, N-{4-Methyl-3-[6-(pyrimidin-5-yl)-1H-imidazo[1,2-b]pyrazol-1-yl]phenyl}-3-(pentafluoro-λ^6-sulphanyl)benzamide]
IC50: 8.9 nM

Cc1cc(C)c(-n2ccn3nc(-c4cncnc4)cc23)cc1NC(=O)c1cccc(S(F)(F)(F)(F)F)c1 [Example 164, N-{2,4-Dimethyl-5-[6-(pyrimidin-5-yl)-1H-imidazo[1,2-b]pyrazol-1-yl]phenyl}-3-(pentafluoro-λ^6-sulphanyl)benzamide]
IC50: 0.4 nM

Cc1cc(C)c(-n2ccn3nc(-c4cncnc4)cc23)cc1NC(=O)c1cc(Br)cc(S(F)(F)(F)(F)F)c1 [Example 165, 3-Bromo-N-{2,4-dimethyl-5-[6-(pyrimidin-5-yl)-1H-imidazo[1,2-b]pyrazol-1-yl]phenyl}-5-(pentafluoro-λ^6-sulphanyl)benzamide]
IC50: 1.7 nM

Cc1cc(C)c(-n2ccn3nc(-c4cncnc4)cc23)cc1NC(=O)c1cc(C#N)cc(S(F)(F)(F)(F)F)c1 [Example 166, 3-Cyano-N-{2,4-dimethyl-5-[6-(pyrimidin-5-yl)-1H-imidazo[1,2-b]pyrazol-1-yl]phenyl}-5-(pentafluoro-λ^6-sulphanyl)benzamide]
IC50: 0.3 nM

Cc1ccc(NC(=O)c2cc(C#N)cc(S(F)(F)(F)(F)F)c2)cc1-n1ccn2nc(-c3ccnnc3)cc12 [Example 168, 3-Cyano-N-{4-methyl-3-[6-(pyridazin-4-yl)-1H-imidazo[1,2-b]pyrazol-1-yl]phenyl}-5-(pentafluoro-λ^6-sulphanyl)benzamide]
IC50: 726 nM

Cc1cc(C)c(-n2ccn3nc(-c4cccnn4)cc23)cc1NC(=O)c1cccc(S(F)(F)(F)(F)F)c1 [Example 169, N-{2,4-Dimethyl-5-[6-(pyridazin-3-yl)-1H-imidazo[1,2-b]pyrazol-1-yl]phenyl}-3-(pentafluoro-λ^6-sulphanyl)benzamide]
IC50: 1 nM

Cc1cc(C)c(-n2ccn3nc(-c4cccnn4)cc23)cc1NC(=O)c1cc(Br)cc(S(F)(F)(F)(F)F)c1 [Example 170, 3-Bromo-N-{2,4-dimethyl-5-[6-(pyridazin-3-yl)-1H-imidazo[1,2-b]pyrazol-1-yl]phenyl}-5-(pentafluoro-λ^6-sulphanyl)benzamide]
IC50: 1.2 nM

Cc1cc(C)c(-n2ccn3nc(-c4cccnn4)cc23)cc1NC(=O)c1cc(C#N)cc(S(F)(F)(F)(F)F)c1 [Example 171, 3-Cyano-N-{2,4-dimethyl-5-[6-(pyridazin-3-yl)-1H-imidazo[1,2-b]pyrazol-1-yl]phenyl}-5-(pentafluoro-λ^6-sulphanyl)benzamide]
IC50: 0.3 nM

Cc1ccc(NC(=O)c2cccc(S(F)(F)(F)(F)F)c2)cc1-n1ccn2nc(-c3cncs3)cc12 [Example 172, N-{4-Methyl-3-[6-(1,3-thiazol-5-yl)-1H-imidazo[1,2-b]pyrazol-1-yl]phenyl}-3-(pentafluoro-λ^6-sulphanyl)benzamide]
IC50: 7.8 nM

Cc1ccc(NC(=O)c2cc(F)cc(S(F)(F)(F)(F)F)c2)cc1-n1ccn2nc(-c3cncs3)cc12 [Example 173, 3-Fluoro-N-{4-methyl-3-[6-(1,3-thiazol-5-yl)-1H-imidazo[1,2-b]pyrazol-1-yl]phenyl}-5-(pentafluoro-λ^6-sulphanyl)benzamide]
IC50: 9.3 nM

Cc1ccc(NC(=O)c2cc(Cl)cc(S(F)(F)(F)(F)F)c2)cc1-n1ccn2nc(-c3cncs3)cc12 [Example 174, 3-Chloro-N-{4-methyl-3-[6-(1,3-thiazol-5-yl)-1H-imidazo[1,2-b]pyrazol-1-yl]phenyl}-5-(pentafluoro-λ^6-sulphanyl)benzamide]
IC50: 2.8 nM

Cc1ccc(NC(=O)c2cc(Br)cc(S(F)(F)(F)(F)F)c2)cc1-n1ccn2nc(-c3cncs3)cc12 [Example 175, 3-Bromo-N-{4-methyl-3-[6-(1,3-thiazol-5-yl)-1H-imidazo[1,2-b]pyrazol-1-yl]phenyl}-5-(pentafluoro-λ^6-sulphanyl)benzamide]
IC50: 3.2 nM

Cc1ccc(NC(=O)c2cc(S(C)(=O)=O)cc(S(F)(F)(F)(F)F)c2)cc1-n1ccn2nc(-c3cncs3)cc12 [Example 176, 3-(Methylsulphonyl)-N-{4-methyl-3-[6-(1,3-thiazol-5-yl)-1H-imidazo[1,2-b]pyrazol-1-yl]phenyl}-5-(pentafluoro-λ^6-sulphanyl)benzamide]
IC50: 0.8 nM

Cc1ccc(NC(=O)c2cc(C#N)cc(S(F)(F)(F)(F)F)c2)cc1-n1ccn2nc(-c3cncs3)cc12 [Example 177, 3-Cyano-N-{4-methyl-3-[6-(1,3-thiazol-5-yl)-1H-imidazo[1,2-b]pyrazol-1-yl]phenyl}-5-(pentafluoro-λ^6-sulphanyl)benzamide]
IC50: 1.8 nM

Cc1ccc(NC(=O)c2cc(C(C)(C)O)cc(S(F)(F)(F)(F)F)c2)cc1-n1ccn2nc(-c3cncs3)cc12 [Example 178, 3-(2-Hydroxypropan-2-yl)-N-{4-methyl-3-[6-(1,3-thiazol-5-yl)-1H-imidazo[1,2-b]pyrazol-1-yl]-phenyl}-5-(pentafluoro-λ^6-sulphanyl)benzamide]
IC50: 0.8 nM
